As usually defined, the IC50 is the concentration at which inhibition is half-maximal. By Tmax is commonly meant the time at which the peak concentration occurs.

Active and inactive are the calls of the source. No cut-off for these calls is given here.

We go through three compounds from ChEMBL document CHEMBL3817757, “Unprecedented Binding Mode of Hydroxamate-Based Inhibitors of Glutamate Carboxypeptidase II: Structural Characterization and Biological Activity” (J Med Chem, 2016).

Data set [1] concerns the target Glutamate carboxypeptidase 2 (Homo sapiens, UniProt Q04609). Put plainly: Inhibition of human recombinant GCP2 expressed in Schneider 2 cells preincubated for 15 mins using [3H]-NAAG/NAAG as substrate measured after 20 mins by liquid scintillation counting.
Data set [2] can be described thus: Ratio of CD1 mouse sciatic nerve AUC (0 to 2 hrs) to CD1 mouse plasma AUC (0 to 2 hrs). The data set is classed as ADME, cell-free. The conditions noted are these: in vivo.
For another data set, the system named is Plasma. Put plainly: Plasma concentration in CD1 mouse at 10 mg/kg, po administered as single dose measured after 0.25 to 2 hrs by LC/MS/MS analysis. The data set is classed as ADME, organism-based. The note with it: in vivo.
The subject of data set [3] is Rattus norvegicus. Put plainly: Effect on absolute paw withdrawal latency to thermal stimulus in sham operated Sprague-Dawley rat at 10 mg/kg/day, po administered via oral gavage for 15 days measured over compound dosing. The note with it: in vivo, 360 h. The data set is classed as ADME, organism-based.
The nature of data set [4]: Tmax in CD1 mouse plasma at 10 mg/kg, po by LC/MS/MS analysis. The data set is classed as ADME, organism-based.
Data set [5] has as its system Rattus norvegicus. Put plainly: Analgesic activity in Sprague-Dawley rat chronic constrictive injury model of neuropathic pain assessed as increase in paw withdrawal latencies in response to thermal stimulus at 10 mg/kg/day, po administered via oral gavage for 15 days measured from day 4 of compound dosing. Format: functional, organism-based.
Data set [6] is described as follows: Drug uptake in CD1 mouse sciatic nerve at 10 mg/kg, po administered as single dose measured after 0.25 to 2 hrs by LC/MS/MS analysis. Format: ADME, organism-based. The note with it: in vivo.

Glutamate carboxypeptidase 2, sequence (Q04609 whole entry): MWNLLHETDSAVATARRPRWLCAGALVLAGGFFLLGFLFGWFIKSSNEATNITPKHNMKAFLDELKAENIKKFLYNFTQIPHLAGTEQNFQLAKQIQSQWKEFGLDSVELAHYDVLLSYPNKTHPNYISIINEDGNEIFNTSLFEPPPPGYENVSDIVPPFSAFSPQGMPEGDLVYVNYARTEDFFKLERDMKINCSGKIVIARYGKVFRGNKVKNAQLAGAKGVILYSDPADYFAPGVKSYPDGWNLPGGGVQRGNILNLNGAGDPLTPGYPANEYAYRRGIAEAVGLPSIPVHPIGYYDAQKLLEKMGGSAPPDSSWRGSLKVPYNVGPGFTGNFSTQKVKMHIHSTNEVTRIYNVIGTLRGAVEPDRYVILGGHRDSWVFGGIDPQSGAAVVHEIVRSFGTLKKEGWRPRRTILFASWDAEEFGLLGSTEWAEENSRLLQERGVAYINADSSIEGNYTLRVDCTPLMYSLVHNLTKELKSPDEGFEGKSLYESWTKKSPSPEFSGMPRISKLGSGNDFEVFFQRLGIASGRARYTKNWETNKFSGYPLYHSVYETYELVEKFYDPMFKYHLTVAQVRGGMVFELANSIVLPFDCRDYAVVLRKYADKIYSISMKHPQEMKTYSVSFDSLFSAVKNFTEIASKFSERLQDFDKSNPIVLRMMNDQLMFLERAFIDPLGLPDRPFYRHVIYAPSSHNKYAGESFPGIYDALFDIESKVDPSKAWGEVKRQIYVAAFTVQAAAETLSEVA

As for `O=C(CC[C@H](Cc1ccc(C(=O)O)cc1)C(=O)O)NO`, the IC50 in data set [1] was 44 nM.
In the case of `O=C(CCC(Cc1ccc(C(=O)O)cc1)C(=O)O)NO` (racemic), the IC50 in data set [1] turned out to be 63 nM.
As to `O=C(CC[C@@H](Cc1ccc(C(=O)O)cc1)C(=O)O)NO`, the “Ratio AUC” value in data set [2] was 43%. In addition, in data set [1], the IC50 was 97 nM. The compound also had a concentration with Plasma of 121 nM. Further, the Activity result in the data set with Rattus norvegicus [3] was “Non-toxic”. Besides, the Tmax in data set [4] is 15 min. Besides, in the data set with Rattus norvegicus [5], the result was Active. In addition, the Drug uptake entry in data set [6] is reported as “Active”.
